Source: patent US20260083714A1, “DOSING REGIMEN FOR TREATING PKU WITH A PIPERIDINE INHIBITOR OF SLC6A19 FUNCTION” (Jnana Therapeutics Inc., priority 2022, published 2026)

Legend:
[1] = biological target: T1, SLC6A19 (Homo sapiens, UniProt Q695T7); test: Amino acid excretion over 24 h after a single dose of suspension in healthy volunteers; assay type: in vivo
T1 construct: SCL6A19 is located in the proximal tubule of the kidney and is responsible for reabsorption of amino acids back into the blood; from tissue; host or cells: Kidney proximal tubule of healthy volunteers (in vivo, endogenous)
T1 sequence (Q695T7 1-634): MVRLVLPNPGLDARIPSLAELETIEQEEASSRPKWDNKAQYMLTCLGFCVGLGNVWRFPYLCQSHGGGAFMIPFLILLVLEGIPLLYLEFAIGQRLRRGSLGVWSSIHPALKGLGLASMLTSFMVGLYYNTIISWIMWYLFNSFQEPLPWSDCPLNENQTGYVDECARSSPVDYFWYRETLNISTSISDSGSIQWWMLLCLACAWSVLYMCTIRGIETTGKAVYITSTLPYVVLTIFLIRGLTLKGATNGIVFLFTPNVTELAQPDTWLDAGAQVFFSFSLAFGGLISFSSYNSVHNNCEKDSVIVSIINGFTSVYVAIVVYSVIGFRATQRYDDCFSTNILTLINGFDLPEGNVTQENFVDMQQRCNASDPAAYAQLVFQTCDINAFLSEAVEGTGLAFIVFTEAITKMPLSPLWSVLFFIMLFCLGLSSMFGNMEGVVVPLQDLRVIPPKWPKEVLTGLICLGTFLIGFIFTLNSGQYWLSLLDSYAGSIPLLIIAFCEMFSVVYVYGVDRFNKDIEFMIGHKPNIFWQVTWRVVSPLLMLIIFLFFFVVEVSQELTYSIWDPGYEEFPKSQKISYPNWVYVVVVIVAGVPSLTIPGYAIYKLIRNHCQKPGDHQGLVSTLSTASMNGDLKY
T1 sequence (Q9HBJ8 15-222 partner): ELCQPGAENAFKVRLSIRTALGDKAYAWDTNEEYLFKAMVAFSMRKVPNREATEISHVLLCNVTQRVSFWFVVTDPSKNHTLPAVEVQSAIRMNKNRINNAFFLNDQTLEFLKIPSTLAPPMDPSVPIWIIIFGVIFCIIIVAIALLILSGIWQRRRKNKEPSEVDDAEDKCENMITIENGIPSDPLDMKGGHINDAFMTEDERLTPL
Description: FIG. 1 is a graph of the pharmacodynamic effect of Compound 1 in healthy volunteers showing changes in total phenylalanine or overall SLC6A19 amino acid substrates (Hartnup amino acids) excretion over 24 hours following administration of a single dose of the compound (10-170 mg) in the form of a suspension.
A suspension formulation of varying doses of Compound 1 (10-170 mg) was administered to healthy volunteers. Changes in amino acid excretion over 24 h following a single dose were measured (FIG. 1). Up to a 14-fold increase in total Phe excretion (from 10 mg to 142 mg) and a 16-fold increase in Hartnup AA excretion (from 0.29 g to 4.8 g) were observed over 24 hr after dosing (Tables 13A and 13B).

[2] = biological target: T1, SLC6A19; test: 24 h excretion of phenylalanine and Hartnup amino acids at Day 1, 7 and 14 of suspension administration in healthy volunteers; assay type: in vivo; conditions: for Hartnup Amino Acids excretion over 24 hours, Mean / Phenylalanine excretion over 24 hours, Mean: in mg
Description: FIG. 3A is a graph of the pharmacodynamic effect of Compound 1 over time in healthy volunteers by measuring changes in total overall SLC6A19 amino acid substrates (Hartnup amino acids) over 14 days of administration of a suspension of the compound at three different doses (25 or 75 mg twice daily [BID] or 150 mg once daily [QD]).
FIG. 3B is a graph of the pharmacodynamic effect of Compound 1 over time in healthy volunteers by measuring changes in total 24 hour phenylalanine over 14 days of administration of a suspension of the compound at three different doses (25 or 75 mg twice daily [BID] or 150 mg once daily [QD]).
A suspension formulation of varying doses of Compound 1 (25 or 75 mg twice daily [BID] or 150 mg once daily [QD]) was administered to healthy volunteers. Changes in excretion of phenylalanine or overall SLC6A19 amino acid substrates (Hartnup amino acids) over 24 hours were measured at Day 1, 7 and 14 (FIGS. 3A and 3B). Urinary excretion of Hartnup amino acids over 24 hours increased from 0.4 g w/ PBO to 4.9 g w/ the compound 75 mg BID (13-fold increase) (Table 15A).

[3] = single dose suspension, highest value of 10-170 mg

Excretion amounts over 24 h, Hartnup Amino Acids, Mean ([1]; single dose 10 mg suspension): 712.45 mg | Excretion amounts over 24 h, Phenylalanine, Mean ([1]; single dose 10 mg suspension): 12.50 mg | Excretion amounts over 24 h, Hartnup Amino Acids, Mean ([1]; single dose 25 mg suspension): 1213.02 mg | Excretion amounts over 24 h, Phenylalanine, Mean ([1]; single dose 25 mg suspension): 21.02 mg | Excretion amounts over 24 h, Hartnup Amino Acids, Mean ([1]; single dose 50 mg suspension): 2560.22 mg | Excretion amounts over 24 h, Phenylalanine, Mean ([1]; single dose 50 mg suspension): 51.53 mg | Excretion amounts over 24 h, Hartnup Amino Acids, Mean ([1]; single dose 100 mg suspension): 3281.75 mg | Excretion amounts over 24 h, Phenylalanine, Mean ([1]; single dose 100 mg suspension): 77.84 mg | Excretion amounts over 24 h, Hartnup Amino Acids, Mean ([1]; single dose 170 mg suspension): 4823.71 mg | Excretion amounts over 24 h, Phenylalanine, Mean ([1]; single dose 170 mg suspension): 141.61 mg | increase in total Phe excretion over 24 hr after dosing ([1]; single dose 10-170 mg suspension, versus 10 mg baseline): ≤ 14 fold | increase in Hartnup AA excretion over 24 hr after dosing ([1]; single dose 10-170 mg suspension, versus 0.29 g baseline): ≤ 16 fold | Hartnup AA excretion over 24 hr after dosing [1, 3]: 4.8 g | total Phe excretion over 24 hr after dosing [1, 3]: 142 mg | Hartnup Amino Acids excretion over 24 hours, Mean ([2]; 25 mg BID suspension, Day 1): 2123.44 | Phenylalanine excretion over 24 hours, Mean ([2]; 25 mg BID suspension, Day 1): 37.38 | Hartnup Amino Acids excretion over 24 hours, Mean ([2]; 25 mg BID suspension, Day 7): 1835.21 | Phenylalanine excretion over 24 hours, Mean ([2]; 25 mg BID suspension, Day 7): 35.22 | Hartnup Amino Acids excretion over 24 hours, Mean ([2]; 25 mg BID suspension, Day 14): 1427.77 | Phenylalanine excretion over 24 hours, Mean ([2]; 25 mg BID suspension, Day 14): 19.65 | increase of urinary excretion of Hartnup amino acids over 24 hours ([2]; 75 mg BID suspension versus PBO (0.4 g)): 13 fold | Hartnup Amino Acids excretion over 24 hours, Mean ([2]; 75 mg BID suspension, Day 1): 4472.55 | Phenylalanine excretion over 24 hours, Mean ([2]; 75 mg BID suspension, Day 1): 105.25 | Hartnup Amino Acids excretion over 24 hours, Mean ([2]; 75 mg BID suspension, Day 7): 4398.31 | Phenylalanine excretion over 24 hours, Mean ([2]; 75 mg BID suspension, Day 7): 70.98 | Hartnup Amino Acids excretion over 24 hours, Mean ([2]; 75 mg BID suspension, Day 14): 4922.75 | Phenylalanine excretion over 24 hours, Mean ([2]; 75 mg BID suspension, Day 14): 88.64 | Urinary excretion of Hartnup amino acids over 24 hours ([2]; 75 mg BID suspension, healthy volunteers): 4.9 g | Hartnup Amino Acids excretion over 24 hours, Mean ([2]; 150 mg QD suspension, Day 1): 3861.43 | Phenylalanine excretion over 24 hours, Mean ([2]; 150 mg QD suspension, Day 1): 106.76 | Hartnup Amino Acids excretion over 24 hours, Mean ([2]; 150 mg QD suspension, Day 7): 6785.54 | Phenylalanine excretion over 24 hours, Mean ([2]; 150 mg QD suspension, Day 7): 166.71 | Hartnup Amino Acids excretion over 24 hours, Mean ([2]; 150 mg QD suspension, Day 14): 3737.47 | Phenylalanine excretion over 24 hours, Mean ([2]; 150 mg QD suspension, Day 14): 72.43
SMILES: NC(=O)N1CCC[C@@H](N(C(=O)NCc2ccc(OC(F)(F)F)cc2F)C2CC2)C1 [Cpd 1, (R)-3-(1-cyclopropyl-3-(2-fluoro-4-(trifluoromethoxy)benzyl)ureido) piperidine-1-carboxamide]
